Results from PubChem BioAssay AID2060890 (Molecular Pharmacology Branch, DTP, NCI, 2025).

Test system: LG0703-F948-PDC complex spheroid viability
Assay: Anticancer human tumor LG0703-F948-PDC patient-derived lung adenocarcinoma cell line growth inhibition [RAS]
Details: for IC50: curve of first compound; for viability, T/C: stronger effect = lower value; active = viability on the fitted dose curve at most 10% of control; inactive = the rest
How it was run: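 Tumour cells grown as complex spheroids with HUVEC endothelial cells and mesenchymal stem cells, treated with RAS pathway inhibitor combinations. Each agent spans half-log steps from near clinical Cmax, or 10 microM where Cmax is unknown.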

[1] = second compound 0.00316 µM, first compound 0.0316 µM
[2] = second compound 0.00316 µM, first compound 0.1 µM
[3] = second compound 0.00316 µM, first compound 0.316 µM
[4] = second compound 0.00316 µM, first compound 1 µM
[5] = second compound 0.01 µM, first compound 0.0316 µM
[6] = second compound 0.01 µM, first compound 0.1 µM
[7] = second compound 0.01 µM, first compound 0.316 µM
[8] = second compound 0.01 µM, first compound 1 µM
[9] = second compound 0.0316 µM, first compound 0.0316 µM
[10] = second compound 0.0316 µM, first compound 0.1 µM
[11] = second compound 0.0316 µM, first compound 0.316 µM
[12] = second compound 0.0316 µM, first compound 1 µM
[13] = second compound 0.1 µM, first compound 0.0316 µM
[14] = second compound 0.1 µM, first compound 0.1 µM
[15] = second compound 0.1 µM, first compound 0.316 µM
[16] = second compound 0.1 µM, first compound 1 µM
[17] = second compound 0.316 µM, first compound 0.0316 µM
[18] = second compound 0.316 µM, first compound 0.1 µM
[19] = second compound 0.316 µM, first compound 0.316 µM
[20] = second compound 0.316 µM, first compound 1 µM
[21] = second compound 1 µM, first compound 0.0316 µM
[22] = second compound 1 µM, first compound 0.1 µM
[23] = second compound 1 µM, first compound 0.316 µM
[24] = second compound 1 µM, first compound 1 µM
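Also: spheroids exposed to agents for 7 days.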
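For viability, T/C in this document: 100% = DMSO vehicle wells.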

O=C(c1ccc(F)c(F)c1Nc1ccc(I)cc1F)N1CC(O)([C@@H]2CCCCN2)C1 + C=CC(=O)N1CCN(c2nc(OCC3CCCN3C)nc3c(F)c(-c4nc(N)cc(C)c4C(F)(F)F)c(Cl)cc23)C(C)C1
31.7 nM: IC50 (second compound 0.1 µM)
27.1 nM: IC50 (second compound 0.00316 µM)
36.3 nM: IC50 (second compound 0.316 µM)
inactive: viability, T/C (second compound 0.00316 µM, first compound 0.00316 µM) 92.1% | viability, T/C (second compound 0.00316 µM, first compound 0.01 µM) 69.6% | viability, T/C [1] 47.3% | viability, T/C [2] 30.2% | viability, T/C [3] 19.5% | viability, T/C [4] 16.7% | viability, T/C (second compound 0.01 µM, first compound 0.00316 µM) 92.6% | viability, T/C (second compound 0.01 µM, first compound 0.01 µM) 79.5% | viability, T/C [5] 51.3% | viability, T/C [6] 26.8% | viability, T/C [7] 16.8% | viability, T/C [8] 13.2% | viability, T/C (second compound 0.0316 µM, first compound 0.00316 µM) 94.2% | viability, T/C (second compound 0.0316 µM, first compound 0.01 µM) 81.2% | viability, T/C [9] 52.3% | viability, T/C [10] 27.7% | viability, T/C [11] 17.6% | viability, T/C [12] 14.2% | viability, T/C (second compound 0.1 µM, first compound 0.00316 µM) 89.7% | viability, T/C (second compound 0.1 µM, first compound 0.01 µM) 74.1% | viability, T/C [13] 50.6% | viability, T/C [14] 27.9% | viability, T/C [15] 18.9% | viability, T/C [16] 13.8% | viability, T/C (second compound 0.316 µM, first compound 0.00316 µM) 90.8% | viability, T/C (second compound 0.316 µM, first compound 0.01 µM) 82.5% | viability, T/C [17] 52.8% | viability, T/C [18] 27% | viability, T/C [19] 19.7% | viability, T/C [20] 17.5% | viability, T/C (second compound 1 µM, first compound 0.00316 µM) 99.8% | viability, T/C (second compound 1 µM, first compound 0.01 µM) 92.7% | viability, T/C [21] 58.4% | viability, T/C [22] 30.9% | viability, T/C [23] 23.6% | viability, T/C [24] 18%
46 nM: IC50 (second compound 1 µM)
34 nM: IC50 (second compound 0.01 µM)
35.6 nM: IC50 (second compound 0.0316 µM)

C[C@@H](NC(=O)c1ncnc(N)c1Cl)c1ncc(C(=O)Nc2cc(C(F)(F)F)c(Cl)cn2)s1 + C=CC(=O)N1CCN(c2nc(OCC3CCCN3C)nc3c(F)c(-c4nc(N)cc(C)c4C(F)(F)F)c(Cl)cc23)C(C)C1
inactive: viability, T/C [1] 99.4% | viability, T/C [2] 100% | viability, T/C [3] 107% | viability, T/C [4] 110% | viability, T/C (second compound 0.00316 µM, first compound 3.16 µM) 104% | viability, T/C (second compound 0.00316 µM, first compound 10 µM) 93% | viability, T/C [5] 113% | viability, T/C [6] 103% | viability, T/C [7] 107% | viability, T/C [8] 111% | viability, T/C (second compound 0.01 µM, first compound 3.16 µM) 109% | viability, T/C (second compound 0.01 µM, first compound 10 µM) 97.2% | viability, T/C [9] 103% | viability, T/C [10] 109% | viability, T/C [11] 95.8% | viability, T/C [12] 102% | viability, T/C (second compound 0.0316 µM, first compound 3.16 µM) 121% | viability, T/C (second compound 0.0316 µM, first compound 10 µM) 95.2% | viability, T/C [13] 106% | viability, T/C [14] 109% | viability, T/C [15] 113% | viability, T/C [16] 109% | viability, T/C (second compound 0.1 µM, first compound 3.16 µM) 118% | viability, T/C (second compound 0.1 µM, first compound 10 µM) 95.2% | viability, T/C [17] 118% | viability, T/C [18] 105% | viability, T/C [19] 108% | viability, T/C [20] 114% | viability, T/C (second compound 0.316 µM, first compound 3.16 µM) 117% | viability, T/C (second compound 0.316 µM, first compound 10 µM) 100% | viability, T/C [21] 115% | viability, T/C [22] 116% | viability, T/C [23] 118% | viability, T/C [24] 132% | viability, T/C (second compound 1 µM, first compound 3.16 µM) 129% | viability, T/C (second compound 1 µM, first compound 10 µM) 98.3%
> 10000 nM: IC50 (second compound 0.00316 µM) | IC50 (second compound 0.01 µM) | IC50 (second compound 0.0316 µM) | IC50 (second compound 0.1 µM) | IC50 (second compound 0.316 µM) | IC50 (second compound 1 µM)

O=C(c1ccc(F)c(F)c1Nc1ccc(I)cc1F)N1CC(O)([C@@H]2CCCCN2)C1 + CCn1c(-c2cc(N3CCN(C)CC3)cnc2C(C)OC)c2c3cc(ccc31)-c1csc(n1)CC(NC(=O)C1CC1C)C(=O)N1CCCC(N1)C(=O)OCC(C)(C)C2
inactive: viability, T/C (second compound 0.000949 µM, first compound 0.00316 µM) 59.2% | viability, T/C (second compound 0.000949 µM, first compound 0.01 µM) 38.7% | viability, T/C (second compound 0.000949 µM, first compound 0.0316 µM) 28% | viability, T/C (second compound 0.000949 µM, first compound 0.1 µM) 19.2% | viability, T/C (second compound 0.000949 µM, first compound 0.316 µM) 18.5% | viability, T/C (second compound 0.000949 µM, first compound 1 µM) 14.4% | viability, T/C (second compound 0.003 µM, first compound 0.00316 µM) 37.1% | viability, T/C (second compound 0.003 µM, first compound 0.01 µM) 22.3% | viability, T/C (second compound 0.003 µM, first compound 0.0316 µM) 19.1% | viability, T/C (second compound 0.003 µM, first compound 0.1 µM) 10.5% | viability, T/C (second compound 0.003 µM, first compound 0.316 µM) 11.4% | viability, T/C (second compound 0.00949 µM, first compound 0.00316 µM) 17.4% | viability, T/C (second compound 0.00949 µM, first compound 0.01 µM) 15.4% | viability, T/C (second compound 0.00949 µM, first compound 0.0316 µM) 8.52% | viability, T/C (second compound 0.03 µM, first compound 0.00316 µM) 10.5%
5.33 nM: IC50 (second compound 0.000949 µM)
< 3.16 nM: IC50 (second compound 0.003 µM) | IC50 (second compound 0.00949 µM) | IC50 (second compound 0.03 µM) | IC50 (second compound 0.0949 µM) | IC50 (second compound 0.3 µM)
active: viability, T/C (second compound 0.003 µM, first compound 1 µM) 8.17% | viability, T/C (second compound 0.00949 µM, first compound 0.1 µM) 6.3% | viability, T/C (second compound 0.00949 µM, first compound 0.316 µM) 8.85% | viability, T/C (second compound 0.00949 µM, first compound 1 µM) 8.14% | viability, T/C (second compound 0.03 µM, first compound 0.01 µM) 8.04% | viability, T/C (second compound 0.03 µM, first compound 0.0316 µM) 4.84% | viability, T/C (second compound 0.03 µM, first compound 0.1 µM) 3% | viability, T/C (second compound 0.03 µM, first compound 0.316 µM) 5.82% | viability, T/C (second compound 0.03 µM, first compound 1 µM) 4.58% | viability, T/C (second compound 0.0949 µM, first compound 0.00316 µM) 7.33% | viability, T/C (second compound 0.0949 µM, first compound 0.01 µM) 6.13% | viability, T/C (second compound 0.0949 µM, first compound 0.0316 µM) 3.55% | viability, T/C (second compound 0.0949 µM, first compound 0.1 µM) 3.1% | viability, T/C (second compound 0.0949 µM, first compound 0.316 µM) 3.05% | viability, T/C (second compound 0.0949 µM, first compound 1 µM) 3.07% | viability, T/C (second compound 0.3 µM, first compound 0.00316 µM) 5.13% | viability, T/C (second compound 0.3 µM, first compound 0.01 µM) 3.55% | viability, T/C (second compound 0.3 µM, first compound 0.0316 µM) 2.8% | viability, T/C (second compound 0.3 µM, first compound 0.1 µM) 2.47% | viability, T/C (second compound 0.3 µM, first compound 0.316 µM) 2.61% | viability, T/C (second compound 0.3 µM, first compound 1 µM) 2.35%
